Experimental data: PMC8162404, “Proteomimetic surface fragments distinguish targets by function” (Chemical Science, 2020)

Experiments:
Gal-1 [1] = target: T1, Gal-1 (Homo sapiens, UniProt P09382); experiment: Competition pull-down with lactose; assay type: binding; conditions: H14 library; lactose 10 mM; read-out: Surface mapping KD (apparent), competition
T1 construct: made in house; host or cells: E. coli BL21(DE3)
Method in brief: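 His6-tagged proteins immobilized on Co-NTA resin at 64 µM final with 64-member LSM foldamer sublibraries (1 M each, as printed) in pH 7.4 HEPES/NaCl buffers (Ca2+/TCEP per target), 30 min RT; competitor peptides 200 µM final, lactose 10 mM for Gal-1. Bound fractions from LC-MS loss vs protein-free resin; KD assuming 1:1 binding.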

S100B [2] = target: T2, S100B (Homo sapiens, UniProt P04271); experiment: Competition pull-down with native ligand RSK1 (689–735); assay type: binding; conditions: H14 library; competitor peptide 200 µM; read-out: Surface mapping KD (apparent), competition
T2 construct: made in house; host or cells: Escherichia coli BL21(DE3)
T2 sequence (P04271 1-92): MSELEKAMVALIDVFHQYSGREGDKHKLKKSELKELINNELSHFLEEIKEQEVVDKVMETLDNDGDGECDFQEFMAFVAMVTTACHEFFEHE

CaM [3] = target: T3, CaM (Bos taurus, UniProt P62157); experiment: Pull-down assay with immobilized protein and LSM libraries; assay type: binding, bovine; conditions: H14 library; 1:2 stoichiometry assumed; read-out: Surface mapping KD (apparent)
T3 construct: made in house; host or cells: E. coli BL21 (DE3)
Method in brief: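 CaM buffer was 20 mM HEPES pH 7.4, 150 mM NaCl, 5 mM CaCl2. LSM sublibrary members ([…]) incubated 30 min, RT, with equimolar His-tagged protein on Co-NTA resin. HPLC-MS measured unbound probes; bound fraction relative to resin-only background gave dissociation constants.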

S100B [4] = target: T2, S100B; experiment: as above; assay type: binding; conditions: H14 library; 1:1 binding assumed; read-out: Surface mapping KD (apparent)
Method in brief: (§1)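 Buffers were HEPES pH 7.4 with 150 mM NaCl, plus 1 mM TCEP and 1 mM CaCl2 (50 mM HEPES) for S100A4 and S100B, 1 mM TCEP for Gal-1, and no additive for RecQ-WH. Immobilized protein at 64 µM was equilibrated 30 min with the LSM sublibrary, and unbound probes were measured by LC-MS.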

Gal-1 [5] = target: T1, Gal-1; experiment: as above; assay type: binding; conditions: H14 library; 1:1 binding assumed; read-out: Surface mapping KD (apparent)
Method in brief: as §1

S100A4 = target: T4, S100A4 (Homo sapiens, UniProt P26447); experiment: as above; assay type: binding; conditions: H14 library; 1:1 binding assumed; read-out: Surface mapping KD (apparent)
T4 construct: made in house; host or cells: Escherichia coli BL21(DE3)
Method in brief: as §1

CaM [6] = target: T3, CaM; experiment: Competition pull-down with native ligand TRPV1-Ct15; assay type: binding, bovine; conditions: H14 library; competitor peptide 200 µM; read-out: Surface mapping KD (apparent), competition

T1 sequence (P09382 whole entry): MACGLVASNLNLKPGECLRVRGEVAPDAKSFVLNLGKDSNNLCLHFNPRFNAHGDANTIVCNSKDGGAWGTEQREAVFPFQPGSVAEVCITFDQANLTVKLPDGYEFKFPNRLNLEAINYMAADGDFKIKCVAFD
T4 sequence (P26447 whole entry): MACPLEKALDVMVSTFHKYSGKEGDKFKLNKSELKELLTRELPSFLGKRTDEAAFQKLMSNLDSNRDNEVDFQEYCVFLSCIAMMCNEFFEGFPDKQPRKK

Structure (SMILES) | Kd (CaM [3]) [µM] | Kd (S100B [4]) [µM] | Kd (Gal-1 [5]) [µM] | Kd (S100A4) [µM] | Kd (Gal-1 [1]) [µM] | Kd (S100B [2]) [µM] | Kd (CaM [6]) [µM]
C[C@@H](CC(=O)N[C@H]1CCCC[C@@H]1C(=O)N[C@H]1CCCC[C@@H]1C(=O)N[C@H](CC(=O)N[C@H]1CCCC[C@@H]1C(N)=O)Cc1c[nH]c2ccccc12)NC(=O)[C@H]1CCCC[C@@H]1N [H14 AW] | 2 | 42 | 203 | 42 | – | 127 | 297
CSCC[C@@H](CC(=O)N[C@H]1CCCC[C@@H]1C(N)=O)NC(=O)[C@H]1CCCC[C@@H]1NC(=O)[C@H]1CCCC[C@@H]1NC(=O)C[C@H](CC(=O)O)NC(=O)[C@H]1CCCC[C@@H]1N [H14 DM] | – | – | – | – | 397 | 159 | 322
CSCC[C@@H](CC(=O)N[C@H]1CCCC[C@@H]1C(=O)N[C@H]1CCCC[C@@H]1C(=O)N[C@@H](CCC(N)=O)CC(=O)N[C@H]1CCCC[C@@H]1C(N)=O)NC(=O)[C@H]1CCCC[C@@H]1N [H14 MQ] | 145 | – | – | 476 | – | 394 | 489
CSCC[C@@H](CC(=O)N[C@H]1CCCC[C@@H]1C(=O)N[C@H]1CCCC[C@@H]1C(=O)N[C@@H](CO)CC(=O)N[C@H]1CCCC[C@@H]1C(N)=O)NC(=O)[C@H]1CCCC[C@@H]1N [H14 MS] | 106 | – | – | 320 | – | 391 | 431
NC(=O)C[C@@H](CC(=O)N[C@H]1CCCC[C@@H]1C(N)=O)NC(=O)[C@H]1CCCC[C@@H]1NC(=O)[C@H]1CCCC[C@@H]1NC(=O)C[C@H](CC(N)=O)NC(=O)[C@H]1CCCC[C@@H]1N [H14 NN] | 162 | – | 246 | – | 444 | 120 | 290
NC(=O)CC[C@@H](CC(=O)N[C@H]1CCCC[C@@H]1C(N)=O)NC(=O)[C@H]1CCCC[C@@H]1NC(=O)[C@H]1CCCC[C@@H]1NC(=O)C[C@H](CC(N)=O)NC(=O)[C@H]1CCCC[C@@H]1N [H14 NQ] | 190 | – | 257 | – | – | 478 | 222
NC(=O)C[C@@H](CC(=O)N[C@H]1CCCC[C@@H]1C(=O)N[C@H]1CCCC[C@@H]1C(=O)N[C@H](CC(=O)N[C@H]1CCCC[C@@H]1C(N)=O)Cc1ccc(O)cc1)NC(=O)[C@H]1CCCC[C@@H]1N [H14 NY] | 109 | 193 | 210 | – | 337 | 444 | 270
NC(=O)CC[C@@H](CC(=O)N[C@H]1CCCC[C@@H]1C(=O)N[C@H]1CCCC[C@@H]1C(=O)N[C@H](CC(=O)N[C@H]1CCCC[C@@H]1C(N)=O)Cc1ccccc1)NC(=O)[C@H]1CCCC[C@@H]1N [H14 QF] | 39 | 83 | 285 | 443 | 319 | 425 | 211
NC(=O)CC[C@@H](CC(=O)N[C@H]1CCCC[C@@H]1C(=O)N[C@H]1CCCC[C@@H]1C(=O)N[C@H](CC(=O)N[C@H]1CCCC[C@@H]1C(N)=O)Cc1ccc(O)cc1)NC(=O)[C@H]1CCCC[C@@H]1N [H14 QY] | 92 | 166 | 174 | – | 350 | 188 | 345
NC(=O)CC[C@@H](CC(=O)N[C@H]1CCCC[C@@H]1C(N)=O)NC(=O)[C@H]1CCCC[C@@H]1NC(=O)[C@H]1CCCC[C@@H]1NC(=O)C[C@H](CO)NC(=O)[C@H]1CCCC[C@@H]1N [H14 SQ] | 176 | – | 275 | – | 460 | 445 | 292
NC(=O)[C@H]1CCCC[C@@H]1NC(=O)C[C@H](Cc1ccc(O)cc1)NC(=O)[C@H]1CCCC[C@@H]1NC(=O)[C@H]1CCCC[C@@H]1NC(=O)C[C@H](CO)NC(=O)[C@H]1CCCC[C@@H]1N [H14 SY] | 90 | 225 | 318 | – | 348 | 109 | 244
C[C@@H](O)[C@@H](CC(=O)N[C@H]1CCCC[C@@H]1C(=O)N[C@H]1CCCC[C@@H]1C(=O)N[C@@H](CC(N)=O)CC(=O)N[C@H]1CCCC[C@@H]1C(N)=O)NC(=O)[C@H]1CCCC[C@@H]1N [H14 TN] | 176 | – | 275 | – | 460 | 445 | 292

Continued, in another order:

Kd (CaM [3]) [µM] | Kd (S100B [4]) [µM] | Kd (Gal-1 [5]) [µM] | Kd (S100A4) [µM] | Structure (SMILES) | Kd (Gal-1 [1]) [µM] | Kd (S100B [2]) [µM] | Kd (CaM [6]) [µM]
98 | 256 | 307 | 10 | CSCC[C@@H](CC(=O)N[C@H]1CCCC[C@@H]1C(N)=O)NC(=O)[C@H]1CCCC[C@@H]1NC(=O)[C@H]1CCCC[C@@H]1NC(=O)C[C@H](C)NC(=O)[C@H]1CCCC[C@@H]1N [H14 AM] | 487 | 359 | –
42 | 153 | 100 | 6 | CC(C)[C@@H](CC(=O)N[C@H]1CCCC[C@@H]1C(N)=O)NC(=O)[C@H]1CCCC[C@@H]1NC(=O)[C@H]1CCCC[C@@H]1NC(=O)C[C@H](C)NC(=O)[C@H]1CCCC[C@@H]1N [H14 AV] | 201 | 316 | –
51 | 142 | 185 | 19 | CC[C@H](C)[C@@H](CC(=O)N[C@H]1CCCC[C@@H]1C(=O)N[C@H]1CCCC[C@@H]1C(=O)N[C@H](CC(=O)N[C@H]1CCCC[C@@H]1C(N)=O)[C@@H](C)O)NC(=O)[C@H]1CCCC[C@@H]1N [H14 IT] | 333 | 373 | –
8 | 170 | 160 | 34 | CC(C)C[C@@H](CC(=O)N[C@H]1CCCC[C@@H]1C(=O)N[C@H]1CCCC[C@@H]1C(=O)N[C@@H](C)CC(=O)N[C@H]1CCCC[C@@H]1C(N)=O)NC(=O)[C@H]1CCCC[C@@H]1N [H14 LA] | 425 | 294 | –
122 | – | 399 | – | CSCC[C@@H](CC(=O)N[C@H]1CCCC[C@@H]1C(=O)N[C@H]1CCCC[C@@H]1C(=O)N[C@@H](CC(N)=O)CC(=O)N[C@H]1CCCC[C@@H]1C(N)=O)NC(=O)[C@H]1CCCC[C@@H]1N [H14 MN] | 495 | 449 | –
63 | 476 | 424 | 148 | CSCC[C@@H](CC(=O)N[C@H]1CCCC[C@@H]1C(=O)N[C@H]1CCCC[C@@H]1C(=O)N[C@H](CC(=O)N[C@H]1CCCC[C@@H]1C(N)=O)[C@@H](C)O)NC(=O)[C@H]1CCCC[C@@H]1N [H14 MT] | – | 337 | –
38 | 299 | 114 | 35 | CC(C)[C@@H](CC(=O)N[C@H]1CCCC[C@@H]1C(=O)N[C@H]1CCCC[C@@H]1C(=O)N[C@@H](C)CC(=O)N[C@H]1CCCC[C@@H]1C(N)=O)NC(=O)[C@H]1CCCC[C@@H]1N [H14 VA] | 375 | 393 | –
40 | 77 | 289 | 284 | CC(C)[C@@H](CC(=O)N[C@H]1CCCC[C@@H]1C(=O)N[C@H]1CCCC[C@@H]1C(=O)N[C@@H](CCCNC(=N)N)CC(=O)N[C@H]1CCCC[C@@H]1C(N)=O)NC(=O)[C@H]1CCCC[C@@H]1N [H14 VR] | – | 221 | –
142 | 382 | 347 | 79 | CC(C)[C@@H](CC(=O)N[C@H]1CCCC[C@@H]1C(=O)N[C@H]1CCCC[C@@H]1C(=O)N[C@H](CC(=O)N[C@H]1CCCC[C@@H]1C(N)=O)[C@@H](C)O)NC(=O)[C@H]1CCCC[C@@H]1N [H14 VT] | – | 484 | –
111 | – | 313 | 435 | NC(=O)C[C@@H](CC(=O)N[C@H]1CCCC[C@@H]1C(N)=O)NC(=O)[C@H]1CCCC[C@@H]1NC(=O)[C@H]1CCCC[C@@H]1NC(=O)C[C@H](Cc1ccc(O)cc1)NC(=O)[C@H]1CCCC[C@@H]1N [H14 YN] | 271 | 476 | –
123 | 480 | 238 | 227 | NC(=O)CC[C@@H](CC(=O)N[C@H]1CCCC[C@@H]1C(N)=O)NC(=O)[C@H]1CCCC[C@@H]1NC(=O)[C@H]1CCCC[C@@H]1NC(=O)C[C@H](Cc1ccc(O)cc1)NC(=O)[C@H]1CCCC[C@@H]1N [H14 YQ] | 439 | 449 | –
30 | 416 | 396 | 222 | C[C@@H](O)[C@@H](CC(=O)N[C@H]1CCCC[C@@H]1C(N)=O)NC(=O)[C@H]1CCCC[C@@H]1NC(=O)[C@H]1CCCC[C@@H]1NC(=O)C[C@H](Cc1ccc(O)cc1)NC(=O)[C@H]1CCCC[C@@H]1N [H14 YT] | – | 403 | –
